Key:
Type in all cases: biochemical
Pim1 kinase = Pim1 kinase (Homo sapiens, UniProt P11309); assay: Pim1 ATP depletion assay; details: Pim1 ATP depletion assay; read-out: PIM1 IC50;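 also: Luciferase-luciferin luminescence readout of residual ATP after PIM1 transfers phosphate to a peptide substrate, 40 µM ATP added, reaction run to roughly half ATP consumption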
Pim2 kinase = Pim2 kinase (Homo sapiens, UniProt Q9P1W9); assay: Pim2 ATP depletion assay; details: read-out: PIM2 IC50;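 also: Luciferase-based luminescent readout of ATP remaining after PIM2 phosphorylates a BAD peptide, final 5 nM enzyme, 4 µM ATP, 10 µM peptide, 2.5% DMSO, run to roughly half ATP consumption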
Sequence of Pim2 kinase (Q9P1W9 whole entry): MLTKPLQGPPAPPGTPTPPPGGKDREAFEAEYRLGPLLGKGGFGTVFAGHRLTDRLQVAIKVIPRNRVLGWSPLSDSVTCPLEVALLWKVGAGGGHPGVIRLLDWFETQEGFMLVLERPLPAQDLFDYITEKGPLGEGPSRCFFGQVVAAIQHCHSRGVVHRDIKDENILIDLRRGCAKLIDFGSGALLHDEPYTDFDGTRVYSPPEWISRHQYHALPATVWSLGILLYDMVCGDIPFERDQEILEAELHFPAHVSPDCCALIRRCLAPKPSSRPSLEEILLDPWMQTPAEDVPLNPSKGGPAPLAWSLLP

Pim3 kinase = Pim3 kinase (Homo sapiens, UniProt Q86V86); assay: Pim3 ATP depletion assay; details: read-out: PIM3 IC50

Sequence of Pim1 kinase (P11309 whole entry): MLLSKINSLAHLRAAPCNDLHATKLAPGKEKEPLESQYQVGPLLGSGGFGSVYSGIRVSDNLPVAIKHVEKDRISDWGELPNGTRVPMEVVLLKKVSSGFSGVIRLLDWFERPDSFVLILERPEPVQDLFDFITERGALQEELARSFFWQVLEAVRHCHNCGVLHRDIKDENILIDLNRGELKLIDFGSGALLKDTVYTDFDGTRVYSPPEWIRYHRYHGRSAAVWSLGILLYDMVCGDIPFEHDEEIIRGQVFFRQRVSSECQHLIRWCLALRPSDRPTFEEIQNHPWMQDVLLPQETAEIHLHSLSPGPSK

SMILES	IC50 (Pim1 kinase)	IC50 (Pim2 kinase)	IC50 (Pim3 kinase)
COc1ccc(-c2ccc(N)c(C(=O)Nc3cnccc3N3CCC[C@H](N)C3)n2)nc1 [Example 696, 5-Amino-5′-methoxy-[2,2′]bi-pyridinyl-6-carboxylic acid (3-amino-3,4,5,6-tetrahydro-2H-[1,4′]bipyridinyl-3′-yl)-amide]	< 1000 nM	< 1000 nM	< 1000 nM
COc1cccnc1-c1ccc(N)c(C(=O)Nc2cnccc2N2CCC[C@H](N)C2)n1 [Example 697, 5-Amino-3′-methoxy-[2,2′]bi-pyridinyl-6-carboxylic acid (3-amino-3,4,5,6-tetrahydro-2H-[1,4′]bipyridinyl-3′-yl)-amide]	< 1000 nM	1000 to 10000 nM	< 1000 nM
CS(=O)(=O)c1ccc(-c2ccc(N)c(C(=O)Nc3cnccc3N3CCC[C@H](N)C3)n2)nc1 [Example 698, 5-Amino-5′-methanesulfonyl-[2,2′]bipyridinyl-6-carboxylic acid (3-amino-3,4,5,6-tetra-hydro-2H-[1,4′]bipyridinyl-3′-yl)-amide]	< 1000 nM	< 1000 nM	< 1000 nM
CSc1ccc(-c2ccc(N)c(C(=O)Nc3cnccc3N3CCC[C@H](N)C3)n2)nc1 [Example 699, 5-Amino-5′-methylsulfanyl-[2,2′]bipyridinyl-6-carboxylic acid (3-amino-3,4,5,6-tetra-hydro-2H-[1,4′]bipyridinyl-3′-yl)-amide]	< 1000 nM	< 1000 nM	< 1000 nM
Nc1ccc(-c2ncc(Cl)cc2Cl)nc1C(=O)Nc1cnccc1N1CCC[C@H](N)C1 [Example 700, 5-Amino-3′,5′-dichloro-[2,2′]bi-pyridinyl-6-carboxylic acid (3-amino-3,4,5,6-tetrahydro-2H-[1,4′]bipyridinyl-3′-yl)-amide]	< 1000 nM	< 1000 nM	< 1000 nM
Cc1cc(Cl)cnc1-c1ccc(N)c(C(=O)Nc2cnccc2N2CCC[C@H](N)C2)n1 [Example 701, 5-Amino-5′-chloro-3′-methyl-[2,2′]bipyridinyl-6-carboxylic acid (3-amino-3,4,5,6-tetra-hydro-2H-[1,4′]bipyridinyl-3′-yl)-amide]	< 1000 nM	< 1000 nM	< 1000 nM
Nc1ccc(-c2cccc(-n3cccn3)n2)nc1C(=O)Nc1cnccc1N1CCC[C@H](N)C1 [Example 703, 5-Amino-6′-pyrazol-1-yl-[2,2′]bipyridinyl-6-carboxylic acid (3-amino-3,4,5,6-tetra-hydro-2H-[1,4′]bipyridinyl-3′-yl)-amide]	< 1000 nM	< 1000 nM	< 1000 nM
NC(=O)c1ccnc(-c2ccc(N)c(C(=O)Nc3cnccc3N3CCC[C@H](N)C3)n2)c1 [Example 704, 5′-Amino-[2,2′]bipyridinyl-4,6′-dicarboxylic acid 4-amide 6′-[(3-amino-3,4,5,6-tetrahydro-2H-[1,4′]bipyridinyl-3′-yl)-amide]]	< 1000 nM	< 1000 nM	< 1000 nM
COc1nc(-c2ccc(N)c(C(=O)Nc3cnccc3N3CCC[C@H](N)C3)n2)ccc1N [Example 705, 5,5′-Diamino-6′-methoxy-[2,2′]bipyridinyl-6-carboxylic acid (3-amino-3,4,5,6-tetra-hydro-2H-[1,4′]bipyridinyl-3′-yl)-amide]	< 1000 nM	< 1000 nM	< 1000 nM
CC(=O)c1cccc(-c2ccc(N)c(C(=O)Nc3cnccc3N3CCC[C@H](N)C3)n2)n1 [Example 706, 6′-Acetyl-5-amino-[2,2′]bi-pyridinyl-6-carboxylic acid (3-amino-3,4,5,6-tetrahydro-2H-[1,4′]bipyridinyl-3′-yl)-amide]	< 1000 nM	< 1000 nM	< 1000 nM
Cc1ccnc(-c2ccc(N)c(C(=O)Nc3cnccc3N3CCC[C@H](N)C3)n2)c1F [Example 707, 5-Amino-3′-fluoro-4′-methyl-[2,2′]bipyridinyl-6-carboxylic acid (3-amino-3,4,5,6-tetra-hydro-2H-[1,4′]bipyridinyl-3′-yl)-amide]	< 1000 nM	< 1000 nM	< 1000 nM
Cc1nc(-c2ccc(N)c(C(=O)Nc3cnccc3N3CCC[C@H](N)C3)n2)ccc1F [Example 708, 5-Amino-5′-fluoro-6′-methyl-[2,2′]bipyridinyl-6-carboxylic acid (3-amino-3,4,5,6-tetra-hydro-2H-[1,4′]bipyridinyl-3′-yl)-amide]	< 1000 nM	< 1000 nM	< 1000 nM
Cc1ccc(F)c(-c2ccc(N)c(C(=O)Nc3cnccc3N3CCC[C@H](N)C3)n2)n1 [Example 709, 5-Amino-3′-fluoro-6′-methyl-[2,2′]bipyridinyl-6-carboxylic acid (3-amino-3,4,5,6-tetra-hydro-2H-[1,4′]bipyridinyl-3′-yl)-amide]	< 1000 nM	< 1000 nM	< 1000 nM
Nc1ccc(-c2cccc(Cl)n2)nc1C(=O)Nc1cnccc1N1CCC[C@H](N)C1 [Example 710, 5-Amino-6′-chloro-[2,2′]bi-pyridinyl-6-carboxylic acid (3-amino-3,4,5,6-tetrahydro-2H-[1,4′]bipyridinyl-3′-yl)-amide]	< 1000 nM	< 1000 nM	< 1000 nM
Nc1cccc(-c2ccc(N)c(C(=O)Nc3cnccc3N3CCC[C@H](N)C3)n2)n1 [Example 711, 5,6′-Diamino-[2,2′]bipyridinyl-6-carboxylic acid (3-amino-3,4,5,6-tetrahydro-2H-[1,4′]bi-pyridinyl-3′-yl)-amide]	< 1000 nM	< 1000 nM	< 1000 nM
Nc1ccc(-c2cccc(F)n2)nc1C(=O)Nc1cnccc1N1CCC[C@H](N)C1 [Example 712, 5-Amino-6′-fluoro-[2,2′]bi-pyridinyl-6-carboxylic acid (3-amino-3,4,5,6-tetrahydro-2H-[1,4′]bipyridinyl-3′-yl)-amide]	< 1000 nM	< 1000 nM	< 1000 nM
Nc1ccc(-c2ccc(Cl)cn2)nc1C(=O)Nc1cnccc1N1CCC[C@H](N)C1 [Example 713, 5-Amino-5′-chloro-[2,2′]bi-pyridinyl-6-carboxylic acid (3-amino-3,4,5,6-tetrahydro-2H-[1,4′]bipyridinyl-3′-yl)-amide]	< 1000 nM	< 1000 nM	< 1000 nM
Nc1ccc(-c2ccc(C(F)(F)F)cn2)nc1C(=O)Nc1cnccc1N1CCC[C@H](N)C1 [Example 714, 5-Amino-5′-trifluoromethyl-[2,2′]bipyridinyl-6-carboxylic acid (3-amino-3,4,5,6-tetra-hydro-2H-[1,4′]bipyridinyl-3′-yl)-amide]	< 1000 nM	< 1000 nM	< 1000 nM
Nc1ccc(-c2cc(C(F)(F)F)ccn2)nc1C(=O)Nc1cnccc1N1CCC[C@H](N)C1 [Example 715, 5-Amino-4′-trifluoromethyl-[2,2′]bipyridinyl-6-carboxylic acid (3-amino-3,4,5,6-tetra-hydro-2H-[1,4′]bipyridinyl-3′-yl)-amide]	< 1000 nM	< 1000 nM	< 1000 nM
Nc1ccc(-c2ncccc2N)nc1C(=O)Nc1cnccc1N1CCC[C@H](N)C1 [Example 716, 5,3′-Diamino-[2,2′]bipyridinyl-6-carboxylic acid (3-amino-3,4,5,6-tetrahydro-2H-[1,4′]bi-pyridinyl-3′-yl)-amide]	< 1000 nM	< 1000 nM	< 1000 nM

Source: patent US20140249135A1, “PIM KINASE INHIBITORS AND METHODS OF THEIR USE” (NOVARTIS AG, priority 2007, published 2014)
